Assay results: article PMC8533089, “Characteristics of Neurokinin-3 Receptor and Its Binding Sites by Mutational Analysis” (Biology, 2021)
Read-outs that look alike come from different tables or passages of the source. Where no end group is shown, it is not given here.

Legend:
tiTac3Ra = tiTac3Ra (Oreochromis niloticus, UniProt A0A075QPN8); test: CRE-Luc antagonist assay, wild-type receptor, COS-7; format: cell-based, tilapia (Oreochromis niloticus); conditions: for IC50: antagonist 0.001–1000 μM added 10 min before peptide, COS-7, CRE-Luc
tiTac3Ra, sequence (A0A075QPN8 entry or part of it): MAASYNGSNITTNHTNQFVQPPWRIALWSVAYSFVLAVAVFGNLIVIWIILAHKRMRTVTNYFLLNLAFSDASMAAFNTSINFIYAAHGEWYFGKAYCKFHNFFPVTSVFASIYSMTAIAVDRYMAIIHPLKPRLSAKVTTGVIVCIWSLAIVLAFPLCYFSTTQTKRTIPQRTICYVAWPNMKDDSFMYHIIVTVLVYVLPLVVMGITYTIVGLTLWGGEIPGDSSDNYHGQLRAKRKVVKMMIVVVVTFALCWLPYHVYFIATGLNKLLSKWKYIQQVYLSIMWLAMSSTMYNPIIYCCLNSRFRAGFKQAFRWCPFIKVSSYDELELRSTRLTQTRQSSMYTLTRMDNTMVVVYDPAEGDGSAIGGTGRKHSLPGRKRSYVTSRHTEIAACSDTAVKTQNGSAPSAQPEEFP
Method: (§1) In order to study the signaling pathways of the mutant tiTac3Ra, the entire coding regions of tiTac3Ra (GenBank accession no. KF471674), and both of the mutant receptors were inserted into pcDNA3.1 (Invitrogen, Massachusetts, United States). We used a sensitive luciferase (LUC) reporter gene assay. […] Transient transfection, cell procedures and stimulation protocols followed the procedures previously described. Briefly, 3 μg of each construct, together with 3 μg of a luciferase reporter plasmid were transiently transfected into COS-7 cells (American Type Culture Collection, Manassas, VA, USA). Forty-eight hours after transfection, cells transfected with Tac3Ra plasmid fused with GFP were applied with an Hoechst dye (Invitrogen, Massachusetts, United States; diluted 1:1000) in order to mark nuclei in the culture for transfection analysis.
Non-peptide molecules, SB-222200 (Sigma, Merck, Darmstadt, Germany) and Osanetant (Axon Medchem, Reston, VA, USA), known to antagonize mammalian NK3R [49] were studied for their ability to antagonize tiTac3Ra, which was activated with a fixed dose of the native ligands (10 nM tiNKB or tiNKF), combined with increasing doses of the antagonists (0.001–1000 μM). The antagonists were added 10 min prior to the addition of the peptides. IC50 values were calculated from concentration response curves by means of computerized nonlinear curve-fitting with Prism version 9 software (GraphPad, San Diego, CA, USA). All experiments were repeated at least 3 times using cells from independent transfections, each performed in triplicate.
NKB antagonists, SB-222200 (Figure 7A) and Osanetant (Figure 7B) were added in increasing concentrations (0.001–1000 μM) to transfected COS-7 that expressed tiTac3Ra. Ten minutes after the induction of the antagonists, the ligand, tiNKB or tiNKF (10 nM) was added to the media.

LH plasma levels = test: In vivo effect of NKB antagonists on LH plasma levels (ELISA); set-up: species or system adult male tilapia (Oreochromis niloticus); conditions: antagonist 100 µg/kg BW IP, then sGnRHa 10 µg/kg BW after 0.5 h; n = 10
Method: (§2) The levels of FSH, LH and GH in the plasma were measured by specific competitive enzyme-linked immunosorbent assay (ELISA), developed for tilapia, based on recombinant gonadotropins or GH that were created by using the yeast Pichia pastoris. For the ELISAs, we used primary antibody antisera against GH [51], FSHβ [52], or against rtLHβ [53], and rtFSHβα [52], rtLHβ [53] or tiGH for the standard curves. Sensitivity for the plasma measurements were 15.84 pg/mL for LH, 0.24 pg/mL for FSH and 30.0 pg/mL for GH. The inter-assay coefficient of variation (CV) was 14.8, 12.5, and 13.0%, while intra-assay CV was 7.2, 8.0, and 8.0% for LH, FSH and GH, respectively.
(§3) Adult male tilapia (BW 89.29 ± 32.93 g; gonado-somatic index (GSI) 0.24% ± 0.40%) were injected IP (intraperitoneal) with NKB antagonists, SB-222200 or Osanetant (100 µg/kg BW), and after 0.5 h, a second injection of sGnRHa (10 µg/kg BW) was added. Control groups were injected with sGnRHa ([DAla^6, Pro^9-Net]-mammalian GnRH; Bachem, Budendorf, Switzerland) 10 µg/kg BW) as a positive control. The fish were bled from the caudal blood vessels into heparinized syringes 0, 0.5, 2, 6 and 24 h after injection. This time course is according to standard protocols used previously to test the effect of GnRH on circulating levels of LH, FSH, and GH in tilapia. Blood samples were collected from the caudal vasculature and centrifuged (3200 rpm for 30 min at 4 °C) (Centrifuge: Fresco 17, Rotor: 75003424, Thermo Scientific™, Langenselbold Germany) to obtain plasma samples, which were stored at −20 °C until assayed. Three independent experiments were carried out for the in-vivo studies.

FSH plasma levels = test: In vivo effect of NKB antagonists on FSH plasma levels (ELISA); set-up: species or system adult male tilapia (Oreochromis niloticus); conditions: antagonist 100 µg/kg BW IP, sGnRHa 10 µg/kg BW after 0.5 h; n = 10
Method: as §2
as §3, with “Blood samples were collected from the caudal vasculature and centrifuged (3200 rpm for 30 min at 4 °C) (Centrifuge: Fresco 17, Rotor: 75003424, Thermo Scientific™, Langenselbold Germany) to obtain plasma samples, which were stored at −20 °C until assayed. Three independent experiments were carried out for the in-vivo studies.” left out

FSH and LH release = conditions: in vivo and in vitro; cited from earlier work
Source text: (§4) The effect of NKB/NKF peptides on gonadotropin secretion in fish is already well established. The first indication that NKB is widely expressed in fish species and has a stimulatory reproductive effect was shown in zebrafish, goldfish, and tilapia. […] Osetanant re ...

[1] = target: native tilapia Tac3Ra (WT); test: CRE-Luc receptor transactivation assay, wild-type receptor, COS-7; format: cell-based, tilapia (Oreochromis niloticus)
Method: as §1
(§5) Cells transfected with the tiTac3Ra construct and luciferase reporter plasmid were treated with tilapia NKB (tiNKB) and tiNKF at increasing doses (0.2–1000 nM). Luciferase activity (Luc) was measured, and compared to basal treatment, and the maximal effect (Luc fold activation) was calculated for each treatment.

tiTac3Ra mutant F251A = test: CRE-Luc receptor transactivation assay, F251A mutant, COS-7; format: cell-based, tilapia (Oreochromis niloticus)
Source text: (§6) The expression vector for tilapia tiTac3Ra (GenBank accession no. KF471674) was modified with the Stratagene QuikChange mutagenesis kit (Stratagene, La Jolla, CA, USA), according to the manufacturer’s instructions using two complementary primers (Table 1). The procedure included 18 PCR cycles as specified by the manufacturer’s manual, and the use of Pfu polymerase for the reaction. The mutated construct was then digested with the restriction enzyme DpnI, which is specific to methylated and hemi-methylated DNA, to digest the template and to select the mutation-containing synthesized DNA. The vector was then transfected into XL1 competent cells (E.coli). Two colonies were sequenced and confirmed to contain the mutation without any undesired misincorporation of nucleotides.
(§7) In order to study the signaling pathways of the mutant tiTac3Ra, the entire coding regions of tiTac3Ra (GenBank accession no. KF471674), and both of the mutant receptors were inserted into pcDNA3.1 (Invitrogen, Massachusetts, United States). We used a sensitive luciferase (LUC) reporter gene assay. […]
as §5

tiTac3Ra mutant M289A = test: CRE-Luc receptor transactivation assay, M289A mutant, COS-7; format: cell-based, tilapia (Oreochromis niloticus)
Source text: as §6, §7, §5

FSH levels = conditions: daily oral dosing throughout the menstrual cycle; cited from earlier work
Source text: as §4

[2] = target: tiTac3Ra F251A mutant (Nile tilapia (Oreochromis niloticus))
[3] = target: tiTac3Ra M289A mutant (Nile tilapia (Oreochromis niloticus))
[4] = target: tilapia Tachykinin 3 receptor a (tiTac3Ra), wild type (Nile tilapia (Oreochromis niloticus))

CC(=O)N(C)C1(c2ccccc2)CCN(CCC[C@]2(c3ccc(Cl)c(Cl)c3)CCCN(C(=O)c3ccccc3)C2)CC1 [Osanetant]
IC50 (tiTac3Ra; 10 nM tiNKB, read-out: IC50 versus tiNKB): 212000 nM
IC50 (tiTac3Ra; 10 nM tiNKF, read-out: IC50 versus tiNKF): 122000 nM
inhibitory effect on Tac3Ra activation (tiTac3Ra; in words): strong inhibitory effect
LH release, combination with sGnRHa (LH plasma levels): no inhibitory effects on LH plasma levels
FSH levels, 2 h post injection, combination with sGnRHa (FSH plasma levels): increased FSH levels

Succ-Asp-Ser-Phe-N(Me)Val-Gly-Leu-Met-NH2 [NKF analog, NKF analog (Succ-Asp-Ser-Phe-N(Me)Val-Gly-Leu-Met-NH2)]
FSH and LH release (FSH and LH release): significantly increased FSH and LH release both in-vivo and in-vitro

Succ-Asp-Ile-Phe-N(Me)Ile-Gly-Leu-Met-NH2 [tiNKB analog, tiNKB analog (Succ-Asp-Ile-Phe-N(Me)Ile-Gly-Leu-Met-NH2)]
FSH and LH release (FSH and LH release): significantly increased FSH and LH release both in-vivo and in-vitro

Succ-Asp-Phe-N(Me)Val-Gly-Leu-Met-NH2 [zfNKBb analog, zfNKBb analog (Succ-Asp-Phe-N(Me)Val-Gly-Leu-Met-NH2)]
FSH and LH release (FSH and LH release): significantly increased FSH and LH release both in-vivo and in-vitro

Succ-Asp-Ile-Phe-N(Me)Val-Gly-Leu-Met-NH2 [zfNKBa analog, zfNKBa analog (Succ-Asp-Ile-Phe-N(Me)Val-Gly-Leu-Met-NH2)]
FSH and LH release (FSH and LH release): significantly increased FSH and LH release both in-vivo and in-vitro

pyroglutaminated [p]-EMDDIFIGLM-NH2 [tiNKB, native tilapia Neurokinin B peptide, synthesized by GL Biochem]
EC50 ([1]; CRE-Luc, COS-7, 0.2–1000 nM, calculated when max effect >2.0): 2.48 ± 0.05 nM
Min effective dose ([1]; CRE-Luc, COS-7, WT): 0.316 nM
Max effect (Luc fold activation) ([1]; WT, COS-7, CRE-Luc, vs basal, 0.2–1000 nM): 3.36 ± 0.46 Luc fold activation
Max effect (Luc fold activation) (tiTac3Ra mutant F251A; F251A, COS-7, CRE-Luc, vs basal, 0.2–1000 nM): 2.0 ± 0.32 Luc fold activation
receptor activity of mutant versus WT (CRE-luciferase) (tiTac3Ra mutant F251A; Phe251^6.44Ala, 0.2–1000 nM peptide): substantial decrease in receptor activity
Max effect (Luc fold activation) (tiTac3Ra mutant M289A; M289A, COS-7, CRE-Luc, vs basal, 0.2–1000 nM): 1.71 ± 0.46 Luc fold activation
receptor activity of mutant versus WT (CRE-luciferase) (tiTac3Ra mutant M289A; Met289^7.43Ala, 0.2–1000 nM peptide): substantial decrease in receptor activity

Cc1nsc(-c2nnc3n2CCN(C(=O)c2ccc(F)cc2)[C@@H]3C)n1 [ESN364]
FSH levels (FSH levels): did not alter FSH levels

B1: Tilapia NKB (neurokinin B) (peptide)
peptide: EMDDIFIGLM
HELM: PEPTIDE1{[Glp].M.D.D.I.F.I.G.L.M.[am]}$$$$V2.0
SMILES: CC[C@H](C)[C@H](NC(=O)[C@H](Cc1ccccc1)NC(=O)[C@@H](NC(=O)[C@H](CC(=O)O)NC(=O)[C@H](CC(=O)O)NC(=O)[C@H](CCSC)NC(=O)[C@@H]1CCC(=O)N1)[C@@H](C)CC)C(=O)NCC(=O)N[C@@H](CC(C)C)C(=O)N[C@@H](CCSC)C(N)=O
Max effect (Luc fold activation), CRE-luciferase receptor transactivation in transfected COS-7 cells, peptide 0.2-1000 nM (Luc fold activation) [2]: 2
Max effect (Luc fold activation), CRE-luciferase receptor transactivation in transfected COS-7 cells, peptide 0.2-1000 nM (Luc fold activation) [3]: 1.71
EC50 (nM) of CRE-luciferase receptor transactivation in transfected COS-7 cells, peptide 0.2-1000 nM [4]: 2.48 nM
Max effect (Luc fold activation), CRE-luciferase receptor transactivation in transfected COS-7 cells, peptide 0.2-1000 nM (Luc fold activation) [4]: 3.36
Min effective dose (nM), CRE-luciferase receptor transactivation in transfected COS-7 cells [4]: 0.316 nM

YNDLDYDSFVGLM-NH2 [Tilapia NKF (neurokinin F)]
Max effect (Luc fold activation), CRE-luciferase receptor transactivation in transfected COS-7 cells, peptide 0.2-1000 nM (Luc fold activation) [2]: 1.99
Max effect (Luc fold activation), CRE-luciferase receptor transactivation in transfected COS-7 cells, peptide 0.2-1000 nM (Luc fold activation) [3]: 1.84
EC50 (nM) of CRE-luciferase receptor transactivation in transfected COS-7 cells, peptide 0.2-1000 nM [4]: 65.2 nM
Max effect (Luc fold activation), CRE-luciferase receptor transactivation in transfected COS-7 cells, peptide 0.2-1000 nM (Luc fold activation) [4]: 3.87
Min effective dose (nM), CRE-luciferase receptor transactivation in transfected COS-7 cells [4]: 0.316 nM
